From ChEMBL document CHEMBL3751727, “One-pot green synthesis of 1,3,5-triarylpentane-1,5-dione and triarylmethane derivatives as a new class of tyrosinase inhibitors” (Bioorg Med Chem Lett, 2016)

Legend:
[1] = biological target: T1, Tyrosinase (Agaricus bisporus, UniProt O42713)
T1 sequence (O42713 whole entry): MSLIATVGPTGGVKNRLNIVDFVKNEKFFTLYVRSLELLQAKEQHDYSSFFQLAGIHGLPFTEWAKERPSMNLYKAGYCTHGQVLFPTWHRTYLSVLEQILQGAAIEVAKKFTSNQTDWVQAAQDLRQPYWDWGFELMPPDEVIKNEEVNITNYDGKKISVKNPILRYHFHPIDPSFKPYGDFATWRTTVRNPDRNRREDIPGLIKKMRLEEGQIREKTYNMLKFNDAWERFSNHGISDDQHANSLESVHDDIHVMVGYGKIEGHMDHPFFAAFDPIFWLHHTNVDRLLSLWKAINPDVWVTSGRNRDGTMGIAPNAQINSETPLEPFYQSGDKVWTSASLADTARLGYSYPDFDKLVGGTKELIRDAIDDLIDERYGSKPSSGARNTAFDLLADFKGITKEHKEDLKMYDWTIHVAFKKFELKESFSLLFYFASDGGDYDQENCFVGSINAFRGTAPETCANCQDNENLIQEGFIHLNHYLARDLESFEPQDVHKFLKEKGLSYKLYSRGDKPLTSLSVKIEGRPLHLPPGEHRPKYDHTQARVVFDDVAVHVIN
Description: Inhibition of mushroom tyrosinase using L-tyrosine as substrate after 20 mins by spectrophotometric method

[2] = biological target: T2, Tyrosinase (Agaricus bisporus) (UniProt O42713); test: Ratio of kojic acid IC50 to compound IC50 for mushroom tyrosinase
T2 sequence (whole entry): T1 sequence (O42713 whole entry)

Row | IC50 [1] [µM] | Ratio IC50 [2] | Compound
1 | 1.67 |  | O=C(CC(CC(=O)c1ccccc1O)c1ccc(O)cc1O)c1ccccc1O
2 | > 300 |  | CC(=O)c1c(O)cccc1O
3 | > 300 |  | CC(=O)c1ccccc1O
4 | 16.2 |  | CC(=O)c1c(O)ccc(C(c2ccc(O)cc2O)c2ccc(O)c(C(C)=O)c2O)c1O
5 | 1.96 |  | O=C1CC(c2ccc(O)cc2O)Oc2cccc(O)c21 (stereo unspecified)

Further lines, the compound ahead of its results:

Row | Compound | IC50 [1] [µM] | Ratio IC50 [2]
6 | O=C1CC(c2ccc(O)cc2O)Oc2ccccc21 (stereo unspecified) | 0.97 | 30
7 | O=Cc1ccc(O)cc1O | > 200 | 
8 | O=C(/C=C/c1ccc(O)cc1O)c1ccccc1O | 0.029 | 30
9 | O=c1cc(-c2ccc(O)cc2O)oc2cccc(O)c12 | 2.72 | 
